The results in this text go back to patent US20210205329A1 (The University of North Carolina at Chapel Hill, priority 2018, published 2021).

Molecules are shown by their SMILES. Values joined by “and” are separate entries in the source; they are usually repeats but may differ in a detail not shown here. Equal entries are not always repeated.

For experiment [1], the target named is T1, TLR4/MyD88 binding (Rattus norvegicus, UniProt Q9QX05).
T1 construct: from tissue; host or cells: ventral tegmental area (VTA) of alcohol-preferring (P) rats
T1 sequence (Q9QX05 26-835): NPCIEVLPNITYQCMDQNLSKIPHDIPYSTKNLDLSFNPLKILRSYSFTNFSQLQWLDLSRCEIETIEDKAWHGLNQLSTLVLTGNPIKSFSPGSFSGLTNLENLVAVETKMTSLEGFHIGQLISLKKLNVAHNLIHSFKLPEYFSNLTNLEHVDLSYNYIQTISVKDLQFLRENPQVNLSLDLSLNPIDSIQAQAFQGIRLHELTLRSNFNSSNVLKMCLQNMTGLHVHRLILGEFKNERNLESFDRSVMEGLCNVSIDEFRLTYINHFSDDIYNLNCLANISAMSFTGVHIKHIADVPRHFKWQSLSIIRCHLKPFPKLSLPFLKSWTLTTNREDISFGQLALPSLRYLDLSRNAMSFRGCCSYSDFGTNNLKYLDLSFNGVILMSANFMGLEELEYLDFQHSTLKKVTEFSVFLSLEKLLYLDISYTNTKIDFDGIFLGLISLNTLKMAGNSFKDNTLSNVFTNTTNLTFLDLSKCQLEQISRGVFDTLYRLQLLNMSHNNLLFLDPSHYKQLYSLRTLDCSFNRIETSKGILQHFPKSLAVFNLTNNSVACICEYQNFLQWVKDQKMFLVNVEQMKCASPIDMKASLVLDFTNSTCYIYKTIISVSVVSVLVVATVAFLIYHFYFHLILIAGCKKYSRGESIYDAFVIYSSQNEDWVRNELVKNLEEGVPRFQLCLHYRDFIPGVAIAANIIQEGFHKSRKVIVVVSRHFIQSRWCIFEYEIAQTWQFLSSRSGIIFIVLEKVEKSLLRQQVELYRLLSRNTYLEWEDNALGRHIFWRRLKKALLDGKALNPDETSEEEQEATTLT
The experiment is described as follows: TLR4/MyD88 co-immunoprecipitation in P rat VTA. As to conditions: 15 mg/kg IP, P rats. The format is in vivo. On the procedure:
(§1) Co-Immunoprecipitation Assay RAW264.7 cells [treated with LPS (1 μg/ml), 3α,5α-THP (1 μM) or pregnenolone (1 μM)] were exposed to chemical protein crosslinking (Poulopoulos et al, 2009) at 24 hrs post-treatment. Briefly, the cells were incubated (20 min on ice) with 1 mM of the cleavable, membrane-permeable crosslinker DSP (Thermo Fisher Scientific, Cat. #PG82081). Rat VTA homogenates were incubated (20 min on ice) with 200 μM of DSP. The crosslinker was quenched in 1 M Tris buffer (pH 7.5) (to a final concentration of 10-20 mM), and the material was centrifuged at 21,000×g for 15 min. Proteins from the cells were extracted with Pierce IP Lysis Buffer (Thermo Fisher Scientific, Cat. #87787) supplemented with protease and phosphatase inhibitor cocktails (Sigma). Proteins from the VTA were extracted with CelLytic MT (dialyzable mild detergent, bicine and 150 mM NaCl; Sigma Aldrich, St. Louis, Mo., USA, Cat. #C3228) supplemented with protease and phosphatase inhibitor cocktails (Sigma) according to the manufacturers instructions. […]

Experiment [2] deals with T2, TLR4/GABAAR α2 binding (Rattus norvegicus, UniProt Q9QX05).
T2 construct: from tissue; host or cells: ventral tegmental area (VTA) of alcohol-preferring (P) rats
T2 sequence (Q9QX05 26-835): T1 sequence (Q9QX05 26-835)
The experiment is described as follows: TLR4/GABAAR α2 co-immunoprecipitation in P rat VTA. The format is in vivo. The conditions noted are these: 15 mg/kg IP, P rats. On the procedure:
as §1

Experiment [3] deals with CX3CL1. Nature of the experiment: CX3CL1 expression in human macrophages. The format is cell-based. As to conditions: 1 μM.

In the case of `CC(=O)[C@H]1CC[C@H]2[C@@H]3CC[C@H]4C[C@H](O)CC[C@]4(C)[C@H]3CC[C@]12C` [3α,5α-THP, (3α,5α)3-hydroxypregnan-20-one], in experiment [1], the “inhibition of TLR4/MyD88 binding in VTA” value is 43.5±5.4% and ~40%. Moreover, the “inhibition of TLR4/GABAAR α2 binding (α2 co-precipitating with TLR4) in VTA” value in experiment [2] was 62.7±9.2% and 82.7±9.2% and ~80%. Further, the “expression of the anti-inflammatory cytokine CX3CL1” value in experiment [3] was “increases expression”.
